Experimental data published in patent US20220135622A1, “ANTIBACTERIAL PEPTIDES AND METHODS OF USE” (priority 2019, published 2022).
≈ marks a conversion by molar mass, not a printed value. Square brackets hold non-standard residues; d marks the D form. Peptide text beside a SMILES is read from it. Bip = N[C@@H](Cc1ccc(-c2ccccc2)cc1)C(=O)O; hPhe = N[C@@H](CCc1ccccc1)C(=O)O; hSer = N[C@@H](CCO)C(=O)O; Dap = NC[C@H](N)C(=O)O

Key:
Conditions in all cases: Table 8
[1] = test system: P. aeruginosa; format: cell-based, Pseudomonas aeruginosa
Experimental: (§1) Bacterial growth conditions. LB or Mueller Hinton II cation-adjusted broth (MHB II, BBL 212322) was prepared according to manufacturer's instructions and supplemented with arabinose at 0.02% for overnight growth or at indicated concentrations in the description of the figures. Bacterial cultures were grown at 37° C. When appropriate, media was supplemented with kanamycin (50 μg/mL), carbenicillin (50 μg/mL), chloramphenicol (12.5 or 25 μg/mL), hygromycin (200 μg/mL), and/or gentamicin (10 μg/mL).
(§2) Peptide sensitivity and MIC assays. Lyophilized peptides (Smartox Biotechnology, CPC Scientific. ABclonal) were solubilized to 10 mM in Tris buffer, pH 8, prior to making a 2-fold dilution series in MHBII cation adjusted broth with highest final assay concentration of 400-800 μM. Bacteria were grown to log phase and added to final OD600˜0.001. The final EDTA concentration was 0.5 mM for E. coli strains and 0.125 mM for USA300. The final volume of 10 μL/well in a 384 well black, clear bottom plate (Corning) was spun <1 min at <250×g and then incubated at 37° C. After 4 h, an equal volume (10 μL) of BacTiter-Glo™ (Promega) was added to each well and luminescence was read after 5 min on an EnVision plate reader (PerkinElmer). To measure the minimal inhibitory concentrations (MICs), bacteria from fresh overnight plates or log phase cultures were diluted with or without EDTA and peptides as described above to final OD600˜0.0002. Plates were incubated at 37° C. for 20 h before measuring OD600 with an EnVision plate reader.

[2] = test system: E. coli BW25113; format: cell-based, Escherichia coli
Experimental: as §1, §2

[3] = test system: K. pneumoniae; format: cell-based, Klebsiella pneumoniae
Experimental: as §1, §2

[4] = test system: A. baumannii; format: cell-based, Acinetobacter baumannii
Experimental: as §1, §2

Question: CSCC[C@H](NC(=O)[C@H](CN)NC(=O)[C@H](CCSC)NC(=O)[C@@H]1CCCN1C(=O)[C@H](Cc1ccc(O)cc1)NC(C)=O)C(=O)N[C@@H](CCCNC(=N)N)C(=O)N[C@@H](CCCNC(=N)N)C(=O)N[C@@H](Cc1ccccc1)C(=O)N[C@@H](CC(C)C)C(=O)N[C@@H](CCC(=O)O)C(=O)N[C@@H](CCCCN)C(=O)N[C@@H](Cc1c[nH]c2ccccc12)C(=O)NCC(=O)N[C@@H](CC(C)C)C(=O)N[C@@H](CC(C)C)C(=O)N[C@@H](CCCNC(=N)N)C(N)=O [compound 78] (Ac-YPM[Dap]MRRFLEKWGLLR-NH2) was tested. Which “MIC R. aeruginosa” value [1] did it give?
Answer: Its value is 100.0 µM (≈ 212 µg/mL).

Question: What about the “MIC E. coli BW25113” value [2] of the same molecule?
Answer: Its value is 12.5 µM (≈ 26.5 µg/mL).

Question: And the “MIC K. pneumoniae” value [3]?
Answer: Its value is 25.0 µM (≈ 53.1 µg/mL).

Question: What about the “MIC A. baumannii” value [4] of the same molecule?
Answer: Its value is 25.0 µM (≈ 53.1 µg/mL).

Question: CSCC[C@H](NC(=O)[C@@H]1CCCN1C(=O)[C@H](Cc1ccc(O)cc1)NC(C)=O)C(=O)N[C@@H](CN)C(=O)N[C@@H](C)C(=O)N[C@@H](CCCNC(=N)N)C(=O)N[C@@H](CCCNC(=N)N)C(=O)N[C@@H](Cc1ccc(-c2ccccc2)cc1)C(=O)N[C@@H](CC(C)C)C(=O)N[C@@H](CCC(=O)O)C(=O)N[C@@H](CCCCN)C(=O)N[C@@H](Cc1c[nH]c2ccccc12)C(=O)NCC(=O)N[C@@H](CC(C)C)C(=O)N[C@@H](CC(C)C)C(=O)N[C@@H](CCCNC(=N)N)C(N)=O [compound 80] (Ac-YPM[Dap]ARR[Bip]LEKWGLLR-NH2) was tested. Which “MIC R. aeruginosa” value [1] did it give?
Answer: The value was 25.0 µM (≈ 53.5 µg/mL).

Question: And the “MIC E. coli BW25113” value [2]?
Answer: Its value is 12.5 µM (≈ 26.7 µg/mL).

Question: What about the “MIC K. pneumoniae” value [3] of the same molecule?
Answer: The value was 12.5 µM (≈ 26.7 µg/mL).

Question: What about the “MIC A. baumannii” value [4] of the same molecule?
Answer: The value was 12.5 µM (≈ 26.7 µg/mL).

Question: For CSCC[C@H](NC(=O)[C@H](CN)NC(=O)[C@H](CCSC)NC(=O)[C@@H]1CCCN1C(=O)[C@H](Cc1ccc(O)cc1)NC(C)=O)C(=O)N[C@@H](CCCNC(=N)N)C(=O)N[C@@H](CCCNC(=N)N)C(=O)N[C@@H](Cc1ccc(-c2ccccc2)cc1)C(=O)N[C@@H](CC(C)C)C(=O)N[C@@H](CCC(=O)O)C(=O)N[C@@H](CCCCN)C(=O)N[C@@H](Cc1c[nH]c2ccccc12)C(=O)NCC(=O)N[C@@H](CC(C)C)C(=O)N[C@@H](CC(C)C)C(=O)N[C@@H](CCCNC(=N)N)C(N)=O [compound 82] (Ac-YPM[Dap]MRR[Bip]LEKWGLLR-NH2), which “MIC R. aeruginosa” value [1] is on record?
Answer: Its value is 50.0 µM (≈ 110 µg/mL).

Question: And the “MIC E. coli BW25113” value [2]?
Answer: Its value is 100.0 µM (≈ 220 µg/mL).

Question: What about the “MIC K. pneumoniae” value [3] of the same molecule?
Answer: The value was 50.0 µM (≈ 110 µg/mL).

Question: What about the “MIC A. baumannii” value [4] of the same molecule?
Answer: Its value is 12.5 µM (≈ 27.5 µg/mL).

Question: For CSCC[C@H](NC(=O)[C@@H]1CCCN1C(=O)[C@H](Cc1ccc(O)cc1)NC(C)=O)C(=O)N[C@H](C(=O)N[C@@H](C)C(=O)N[C@@H](CCCNC(=N)N)C(=O)N[C@@H](CCCNC(=N)N)C(=O)N[C@@H](CCc1ccccc1)C(=O)N[C@@H](CC(C)C)C(=O)N[C@@H](CCC(=O)O)C(=O)N[C@@H](CCCCN)C(=O)N[C@@H](Cc1c[nH]c2ccccc12)C(=O)NCC(=O)N[C@@H](CC(C)C)C(=O)N[C@@H](CC(C)C)C(=O)N[C@@H](CCCNC(=N)N)C(N)=O)[C@@H](C)O [compound 84] (Ac-YPMTARR[hPhe]LEKWGLLR-NH2), which “MIC R. aeruginosa” value [1] is on record?
Answer: Its value is 200.0 µM (≈ 419 µg/mL).

Question: What about the “MIC E. coli BW25113” value [2] of the same molecule?
Answer: Its value is 50.0 µM (≈ 105 µg/mL).

Question: What about the “MIC K. pneumoniae” value [3] of the same molecule?
Answer: The value was 50.0 µM (≈ 105 µg/mL).

Question: And the “MIC A. baumannii” value [4]?
Answer: The value was 25.0 µM (≈ 52.3 µg/mL).

Question: For CSCC[C@H](NC(=O)[C@@H]1CCCN1C(=O)[C@H](Cc1ccc(O)cc1)NC(C)=O)C(=O)N[C@H](C(=O)N[C@@H](C)C(=O)N[C@@H](CCCNC(=N)N)C(=O)N[C@@H](CCCNC(=N)N)C(=O)N[C@@H](Cc1ccccc1)C(=O)N[C@@H](CC(C)C)C(=O)N[C@@H](CCO)C(=O)N[C@@H](CCCCN)C(=O)N[C@@H](Cc1c[nH]c2ccccc12)C(=O)NCC(=O)N[C@@H](CC(C)C)C(=O)N[C@@H](CC(C)C)C(=O)N[C@@H](CCCNC(=N)N)C(N)=O)[C@@H](C)O [compound 85] (Ac-YPMTARRFL[hSer]KWGLLR-NH2), which “MIC R. aeruginosa” value [1] is on record?
Answer: The value was 200.0 µM (≈ 410 µg/mL).

Question: And the “MIC E. coli BW25113” value [2]?
Answer: The value was 200.0 µM (≈ 410 µg/mL).

Question: And the “MIC K. pneumoniae” value [3]?
Answer: Its value is 200.0 µM (≈ 410 µg/mL).

Question: What about the “MIC A. baumannii” value [4] of the same molecule?
Answer: The value was 100.0 µM (≈ 205 µg/mL).

Question: What does the source list for CSCC[C@H](NC(=O)[C@@H]1CCCN1C(=O)[C@H](Cc1ccc(O)cc1)NC(C)=O)C(=O)N[C@@H](CN)C(=O)N[C@@H](C)C(=O)N[C@@H](CCCNC(=N)N)C(=O)N[C@@H](CCCNC(=N)N)C(=O)N[C@@H](Cc1ccccc1)C(=O)N[C@@H](CC(C)C)C(=O)N[C@@H](C)C(=O)N[C@@H](CCCCN)C(=O)N[C@@H](Cc1c[nH]c2ccccc12)C(=O)NCC(=O)N[C@@H](CC(C)C)C(=O)N[C@@H](CC(C)C)C(=O)N[C@@H](CCCNC(=N)N)C(N)=O [compound 86] (Ac-YPM[Dap]ARRFLAKWGLLR-NH2)?
Answer: MIC R. aeruginosa [1]: 50.0 µM (≈ 100 µg/mL); MIC E. coli BW25113 [2]: 25.0 µM (≈ 50.1 µg/mL); MIC K. pneumoniae [3]: 50.0 µM (≈ 100 µg/mL); MIC A. baumannii [4]: 25.0 µM (≈ 50.1 µg/mL)
